These results are taken from article PMC10618744 (Cancer Discovery, 2023).

The assay addresses PRMT5 (protein arginine methyltransferase 5) (Homo sapiens, UniProt O14744). It is filed as biochemical.

The structures appear in SMILES notation. pIC50: −log10 of the molar value.

Chain of PRMT5 (protein arginine methyltransferase 5) (O14744 2-637): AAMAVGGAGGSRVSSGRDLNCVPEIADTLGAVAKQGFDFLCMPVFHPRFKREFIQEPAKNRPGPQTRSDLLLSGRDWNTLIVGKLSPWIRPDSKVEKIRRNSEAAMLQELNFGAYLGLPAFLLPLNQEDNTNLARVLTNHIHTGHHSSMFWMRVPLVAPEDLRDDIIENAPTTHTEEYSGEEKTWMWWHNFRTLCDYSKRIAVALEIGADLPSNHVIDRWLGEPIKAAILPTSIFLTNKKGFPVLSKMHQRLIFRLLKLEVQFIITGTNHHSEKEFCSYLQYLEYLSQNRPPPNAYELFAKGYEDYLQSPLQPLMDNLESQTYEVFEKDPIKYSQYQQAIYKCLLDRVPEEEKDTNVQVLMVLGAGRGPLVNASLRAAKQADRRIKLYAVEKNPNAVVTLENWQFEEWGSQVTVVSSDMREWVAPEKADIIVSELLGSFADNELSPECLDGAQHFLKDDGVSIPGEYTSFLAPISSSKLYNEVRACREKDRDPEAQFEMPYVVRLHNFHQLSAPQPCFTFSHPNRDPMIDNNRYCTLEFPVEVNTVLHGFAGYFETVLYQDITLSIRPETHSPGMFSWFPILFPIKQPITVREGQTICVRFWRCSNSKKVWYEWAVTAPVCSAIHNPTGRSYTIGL
Chain of PRMT5 (protein arginine methyltransferase 5) (Q9BQA1 2-342 partner): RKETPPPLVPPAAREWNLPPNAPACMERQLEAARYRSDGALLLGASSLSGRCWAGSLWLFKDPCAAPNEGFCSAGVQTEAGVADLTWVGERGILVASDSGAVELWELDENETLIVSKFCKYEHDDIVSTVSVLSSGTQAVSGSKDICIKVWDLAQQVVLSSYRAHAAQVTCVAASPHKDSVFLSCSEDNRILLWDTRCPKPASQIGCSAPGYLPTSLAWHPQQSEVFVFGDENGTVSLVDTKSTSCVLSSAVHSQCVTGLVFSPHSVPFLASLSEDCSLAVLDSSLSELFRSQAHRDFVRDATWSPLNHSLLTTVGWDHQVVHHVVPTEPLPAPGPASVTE

In general, pIC50 refers to the negative decadic logarithm of the IC50, by convention in mol/L. Higher therefore signals a small IC50. In turn, `CSC[C@H]1O[C@@H](n2cnc3c(N)ncnc32)[C@H](O)[C@@H]1O` [MTA] had a pIC50 of about 5.70.
